Results published in the supplement of paper PMC11451515.

System: P12-Ichikawa
Assay: cell viability relative to DMSO control; higher = less cytotoxic
Conditions: 48 h
Method in brief: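 NOMO1 or SEM (500 cells/well) or P12-Ichikawa (1000 cells/well) leukemia cells were adapted for at least four passages in each medium. They were seeded in 1536-well plates (5 μl) and pin-dosed with library compounds in DMSO over an 11-point threefold series, 47 μM to 0.79 nM. CellTiter-Glo One luminescence was read after 48 h at 37°C. Viability is the per-plate percentage relative to DMSO wells, with cell-free wells as background.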

[1] = HPLM + 10% dialyzed FBS, 0.000781 µM
[2] = HPLM + 10% dialyzed FBS, 0.00234 µM
[3] = HPLM + 10% dialyzed FBS, 0.00702 µM
[4] = HPLM + 10% dialyzed FBS, 0.0211 µM
[5] = HPLM + 10% dialyzed FBS, 0.0632 µM
[6] = HPLM + 10% dialyzed FBS, 0.19 µM
[7] = HPLM + 10% dialyzed FBS, 0.569 µM
[8] = HPLM + 10% dialyzed FBS, 1.71 µM
[9] = HPLM + 10% dialyzed FBS, 5.12 µM
[10] = HPLM + 10% dialyzed FBS, 15.4 µM
[11] = HPLM + 10% dialyzed FBS, 46.1 µM
[12] = RPMI 5 mM glucose + 10% FBS, 0.000781 µM
[13] = RPMI 5 mM glucose + 10% FBS, 0.00234 µM
[14] = RPMI 5 mM glucose + 10% FBS, 0.00702 µM
[15] = RPMI 5 mM glucose + 10% FBS, 0.0211 µM
[16] = RPMI 5 mM glucose + 10% FBS, 0.0632 µM
[17] = RPMI 5 mM glucose + 10% FBS, 0.19 µM
[18] = RPMI 5 mM glucose + 10% FBS, 0.569 µM
[19] = RPMI 5 mM glucose + 10% FBS, 1.71 µM
[20] = RPMI 5 mM glucose + 10% FBS, 5.12 µM
[21] = RPMI 5 mM glucose + 10% FBS, 15.4 µM
[22] = RPMI 5 mM glucose + 10% FBS, 46.1 µM
[23] = RPMI 5 mM glucose + 10% dialyzed FBS, 0.000781 µM
[24] = RPMI 5 mM glucose + 10% dialyzed FBS, 0.00234 µM
[25] = RPMI 5 mM glucose + 10% dialyzed FBS, 0.00702 µM
[26] = RPMI 5 mM glucose + 10% dialyzed FBS, 0.0211 µM
[27] = RPMI 5 mM glucose + 10% dialyzed FBS, 0.0632 µM
[28] = RPMI 5 mM glucose + 10% dialyzed FBS, 0.19 µM
[29] = RPMI 5 mM glucose + 10% dialyzed FBS, 0.569 µM
[30] = RPMI 5 mM glucose + 10% dialyzed FBS, 1.71 µM
[31] = RPMI 5 mM glucose + 10% dialyzed FBS, 5.12 µM
[32] = RPMI 5 mM glucose + 10% dialyzed FBS, 15.4 µM
[33] = RPMI 5 mM glucose + 10% dialyzed FBS, 46.1 µM

Compound	cell viability [1] [%]	cell viability [2] [%]	cell viability [3] [%]	cell viability [4] [%]	cell viability [5] [%]	cell viability [6] [%]	cell viability [7] [%]	cell viability [8] [%]	cell viability [9] [%]	cell viability [10] [%]	cell viability [11] [%]	cell viability [12] [%]	cell viability [13] [%]	cell viability [14] [%]	cell viability [15] [%]	cell viability [16] [%]	cell viability [17] [%]	cell viability [18] [%]	cell viability [19] [%]	cell viability [20] [%]	cell viability [21] [%]	cell viability [22] [%]	cell viability [23] [%]	cell viability [24] [%]	cell viability [25] [%]	cell viability [26] [%]	cell viability [27] [%]	cell viability [28] [%]	cell viability [29] [%]	cell viability [30] [%]	cell viability [31] [%]	cell viability [32] [%]	cell viability [33] [%]
CC12CC3CC(C)(C1)CC(N)(C3)C2	122	119	115	115	129	130	124	122	117	89.8	58.9	109	118	117	120	138	122	131	130	123	112	78.4	110	115	116	117	129	117	125	127	115	109	89.7
C[C@]12CC[C@H]3[C@@H](CCC4=CC(=O)CC[C@@H]43)[C@@H]1CC[C@@H]2OC(=O)CCc1ccccc1	116	115	117	115	113	121	120	120	121	119	117	–	–	–	–	–	–	–	–	–	–	–	104	113	112	106	115	119	113	123	112	114	104
CCCCCCCCCCCCCC(=O)N[C@H](CO)[C@H](O)c1ccc([N+](=O)[O-])cc1	99.4	90.6	100	104	102	102	105	79.7	40.3	2.44	1.98	96.9	94.2	95.5	92.7	102	84.9	89.1	55.1	21.1	3.47	1.51	89.4	81.5	90.9	94	94.8	85.8	93.4	52	24.6	4.09	2.4
COc1cc2c(cc1OC)CN(CCc1ccc(NC(=O)c3cc(OC)c(OC)cc3NC(=O)c3cnc4ccccc4c3)cc1)CC2	114	122	115	114	110	113	111	102	65.6	62.8	44.4	124	112	112	120	112	118	105	92.7	64	54.1	47.5	114	106	116	114	113	114	99.4	92	56.4	56.6	46.5
O=C(CCCN1CCN(c2ccc(F)cc2)CC1)NC1c2ccccc2CSc2ccccc21 (stereo not given)	120	125	123	119	121	120	117	119	109	102	71.4	126	121	119	126	131	123	136	119	97.4	83.5	55.1	123	122	122	120	120	115	121	110	100	77.7	59
CN(C)CC(C)(C)CNc1nn2c(-c3ccccc3)nnc2cc1C1CCC1	106	103	110	111	112	110	94.9	111	84.2	33.9	6.88	108	111	104	102	109	106	87.8	105	70.3	46.7	6.32	105	111	107	111	113	115	98.3	113	88.1	76.9	13.6
C=CC(=O)Nc1cc2c(Nc3ccc(F)c(Cl)c3)ncnc2cc1OCCCN1CCOCC1	124	132	119	120	118	122	113	109	94.3	67.2	53.1	117	124	125	126	111	110	118	110	93.5	73.6	89.8	134	122	119	126	126	128	127	108	96.4	91.6	100
CC[C@@H]([C@H](C)O)n1ncn(-c2ccc(N3CCN(c4ccc(OCC5CO[C@@](Cn6cncn6)(c6ccc(F)cc6F)C5)cc4)CC3)cc2)c1=O (stereo not given in full)	102	99.8	101	96.3	98.3	91.1	100	92.2	90.8	84.9	85.1	101	102	104	97.8	95	102	92.3	91.1	92.1	88.3	82.6	87.2	98	95.1	97.9	90.9	87.7	85.7	89.8	85.1	83.5	75
CCCCOc1c(C(=O)c2c(F)cc(C)cc2F)cnc2[nH]ncc12	97.5	102	104	109	107	89.6	104	107	102	91.3	95.5	104	99	107	102	104	108	103	105	88.4	94.4	77.9	107	104	102	104	101	97.4	93.8	94.6	78.9	89.6	81.3
O=C(O)CCNC(=O)c1ccc(/N=N/c2ccc(O)c(C(=O)O)c2)cc1	115	116	114	114	110	120	109	115	112	110	113	–	–	–	–	–	–	–	–	–	–	–	–	–	–	–	–	–	–	–	–	–	–
CCCCN(CCCC)CC(O)c1cc(Cl)cc2c1-c1ccc(Cl)cc1/C2=C/c1ccc(Cl)cc1 (stereo not given)	97.6	99.8	114	107	107	111	109	117	104	121	117	98.6	102	107	98	102	117	104	113	97.5	109	82.5	83.9	99.7	101	107	96.9	98.1	97.5	103	104	107	107
CC(C)OC(=O)[C@H](C)N[P@](=O)(OC[C@H]1O[C@@H](N2\C=C/C(=O)NC2=O)[C@](C)(F)[C@@H]1O)OC3=CC=CC=C3	104	111	117	110	102	108	94.3	41.5	8.75	6.42	9.25	113	99	124	109	112	101	110	98.1	69.3	7.18	5.81	96.2	105	106	103	102	102	101	93.1	49.8	12	11.3
CCCNC(=O)Nc1ccc(Oc2ncnc3cc(OC)c(OC)cc23)cc1Cl	88.2	97.6	93.4	99.9	98.7	97.3	89	76.1	88.1	95.6	84.2	93.9	97.3	97.2	99.8	94.7	96.3	87.6	82.8	85.2	81.3	80.4	98.7	99.5	94.8	99.7	92	91.1	91.4	93.5	86.8	86.5	75.7
CCc1ccc(/C=C2/SC(=S)NC2=O)cc1	84.2	87.7	79.6	88.1	90.9	80.1	91.5	84	85.3	60	88.1	82.4	84.6	76	88.9	82.8	77.7	85.1	87.3	84.8	46.1	87.9	77.4	83.8	81.7	81.2	87.1	76.6	87.3	83.5	81.9	38.1	90.4
Cc1ccc([S+](=O)([O-])OCC(=O)Nc2ccc(C(=O)O)c(O)c2)cc1	106	117	122	126	126	133	120	136	121	102	8.9	–	–	–	–	–	–	–	–	–	–	–	–	–	–	–	–	–	–	–	–	–	–
